Source: ChEMBL document CHEMBL5150061, “Design and Synthesis of Fibroblast Growth Factor Receptor (FGFR) and Histone Deacetylase (HDAC) Dual Inhibitors for the Treatment of Cancer” (J Med Chem, 2022)

Tests used:
[1] = biological target: Histone deacetylase 2 (Homo sapiens, UniProt Q92769); assay: Inhibition of HDAC2 (unknown origin)
[2] = AUC (0 to infinity) in Sprague-Dawley rat at 30 mg/kg, po measured for 24 hrs by LC-MS/MS-18 analysis; assay type: ADME, organism-based; set-up: dose 30 mg/kg, time 24 hrs, route po; conditions: in vivo
[3] = biological target: Fibroblast growth factor receptor 2 (Homo sapiens, UniProt P21802); assay: Inhibition of FGFR2 (unknown origin)
Sequence of Fibroblast growth factor receptor 2 (P21802 whole entry): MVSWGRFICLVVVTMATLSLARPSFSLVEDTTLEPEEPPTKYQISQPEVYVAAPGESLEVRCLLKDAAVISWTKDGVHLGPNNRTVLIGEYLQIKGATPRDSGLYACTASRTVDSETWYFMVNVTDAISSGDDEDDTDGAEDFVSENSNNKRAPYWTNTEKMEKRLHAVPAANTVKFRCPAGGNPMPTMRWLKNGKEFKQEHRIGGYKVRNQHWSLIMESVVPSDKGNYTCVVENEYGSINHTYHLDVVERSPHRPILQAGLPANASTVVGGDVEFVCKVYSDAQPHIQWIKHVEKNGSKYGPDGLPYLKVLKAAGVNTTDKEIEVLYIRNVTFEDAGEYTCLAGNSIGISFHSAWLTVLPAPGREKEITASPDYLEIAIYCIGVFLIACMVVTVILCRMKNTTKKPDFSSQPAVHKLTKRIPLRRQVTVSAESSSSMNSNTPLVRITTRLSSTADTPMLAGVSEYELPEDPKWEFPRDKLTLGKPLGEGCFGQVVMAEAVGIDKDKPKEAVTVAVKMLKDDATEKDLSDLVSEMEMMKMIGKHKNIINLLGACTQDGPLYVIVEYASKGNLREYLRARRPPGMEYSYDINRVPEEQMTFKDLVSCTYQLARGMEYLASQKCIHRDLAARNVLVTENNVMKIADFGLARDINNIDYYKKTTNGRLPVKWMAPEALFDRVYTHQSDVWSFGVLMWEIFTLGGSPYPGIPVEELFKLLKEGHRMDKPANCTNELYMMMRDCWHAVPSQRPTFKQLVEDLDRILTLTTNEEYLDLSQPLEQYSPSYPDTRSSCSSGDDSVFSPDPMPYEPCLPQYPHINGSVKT

[4] = Toxicity in BALB/c nude mouse xenografted with human SNU-16 cells assessed as reduction in body weight at 15 to 30 mg/kg/day, ip administered for 18 days and measured every 3 days; assay type: organism-based; conditions: in vivo, 432 h, dose 15-30 mg/kg/day, time 18 day
[5] = biological target: T1, Histone deacetylase 8 (Homo sapiens, UniProt Q9BY41); assay: Inhibition of HDAC8 (unknown origin)
T1 sequence (Q9BY41 whole entry): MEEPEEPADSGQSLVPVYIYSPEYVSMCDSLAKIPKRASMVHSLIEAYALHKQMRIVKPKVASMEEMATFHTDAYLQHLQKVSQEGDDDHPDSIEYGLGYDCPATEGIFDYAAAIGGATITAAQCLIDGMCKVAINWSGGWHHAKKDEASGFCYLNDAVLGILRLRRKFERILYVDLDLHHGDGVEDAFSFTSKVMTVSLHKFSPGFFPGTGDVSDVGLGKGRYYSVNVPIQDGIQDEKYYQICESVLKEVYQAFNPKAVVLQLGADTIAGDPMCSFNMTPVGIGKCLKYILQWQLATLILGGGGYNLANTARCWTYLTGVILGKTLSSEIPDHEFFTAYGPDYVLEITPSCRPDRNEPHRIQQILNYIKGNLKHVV

[6] = biological target: Fibroblast growth factor receptor 4 (Homo sapiens, UniProt P22455); assay: Inhibition of FGFR4 (unknown origin)
Sequence of Fibroblast growth factor receptor 4 (P22455 whole entry): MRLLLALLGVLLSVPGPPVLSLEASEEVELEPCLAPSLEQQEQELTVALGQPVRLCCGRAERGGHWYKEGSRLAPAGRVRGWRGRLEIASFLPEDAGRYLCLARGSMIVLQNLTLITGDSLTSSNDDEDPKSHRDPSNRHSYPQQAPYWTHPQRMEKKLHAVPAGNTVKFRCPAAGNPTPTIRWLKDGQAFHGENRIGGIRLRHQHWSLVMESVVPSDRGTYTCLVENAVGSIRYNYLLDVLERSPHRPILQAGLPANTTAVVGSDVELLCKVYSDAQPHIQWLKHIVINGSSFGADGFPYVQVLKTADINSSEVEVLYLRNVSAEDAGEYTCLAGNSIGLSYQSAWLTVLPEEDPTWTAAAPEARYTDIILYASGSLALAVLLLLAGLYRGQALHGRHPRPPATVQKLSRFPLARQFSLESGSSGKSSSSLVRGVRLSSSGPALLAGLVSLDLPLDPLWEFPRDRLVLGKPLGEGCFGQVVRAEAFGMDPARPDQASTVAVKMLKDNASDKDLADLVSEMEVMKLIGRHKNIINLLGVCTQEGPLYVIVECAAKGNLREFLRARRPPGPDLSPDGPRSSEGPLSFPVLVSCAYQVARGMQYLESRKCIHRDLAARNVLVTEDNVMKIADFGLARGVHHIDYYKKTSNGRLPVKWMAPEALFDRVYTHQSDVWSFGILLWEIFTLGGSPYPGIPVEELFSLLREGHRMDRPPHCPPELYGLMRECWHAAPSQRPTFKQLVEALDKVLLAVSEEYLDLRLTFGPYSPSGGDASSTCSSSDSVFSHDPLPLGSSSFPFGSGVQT

[7] = Oral bioavailability in Sprague-Dawley rat at 5 mg/kg measured for 24 hrs by LC-MS/MS-18 analysis; assay type: ADME, organism-based; conditions: in vivo, route ip
[8] = Half life in Sprague-Dawley rat at 30 mg/kg, po measured for 24 hrs by LC-MS/MS-18 analysis; assay type: ADME, organism-based; conditions: in vivo
[9] = AUC (0 to infinity) in Sprague-Dawley rat at 2 mg/kg, iv measured for 24 hrs by LC-MS/MS-18 analysis; assay type: ADME, organism-based; set-up: time 24 hrs, dose 2 mg/kg, route iv; conditions: in vivo
[10] = Volume of distribution at steady state in Sprague-Dawley rat at 2 mg/kg, iv measured for 24 hrs by LC-MS/MS-18 analysis; assay type: ADME, organism-based; conditions: in vivo, read-out: Vdss
[11] = Cmax in Sprague-Dawley rat at 30 mg/kg, po measured for 24 hrs by LC-MS/MS-18 analysis; assay type: ADME, organism-based; set-up: dose 30 mg/kg, time 24 hrs, route po; conditions: in vivo
[12] = Tmax in Sprague-Dawley rat at 2 mg/kg, iv measured for 24 hrs by LC-MS/MS-18 analysis; assay type: ADME, organism-based; conditions: in vivo
[13] = Clearance in Sprague-Dawley rat at 2 mg/kg, iv measured for 24 hrs by LC-MS/MS-18 analysis; assay type: ADME, organism-based; conditions: in vivo
[14] = Cmax in Sprague-Dawley rat at 2 mg/kg, iv measured for 24 hrs by LC-MS/MS-18 analysis; assay type: ADME, organism-based; set-up: time 24 hrs, dose 2 mg/kg, route iv; conditions: in vivo
[15] = Oral bioavailability in Sprague-Dawley rat at 30 mg/kg measured for 24 hrs by LC-MS/MS-18 analysis; assay type: ADME, organism-based; conditions: in vivo
[16] = biological target: Fibroblast growth factor receptor 3 (Homo sapiens, UniProt P22607); assay: Inhibition of FGFR3 (unknown origin)
Sequence of Fibroblast growth factor receptor 3 (P22607 whole entry): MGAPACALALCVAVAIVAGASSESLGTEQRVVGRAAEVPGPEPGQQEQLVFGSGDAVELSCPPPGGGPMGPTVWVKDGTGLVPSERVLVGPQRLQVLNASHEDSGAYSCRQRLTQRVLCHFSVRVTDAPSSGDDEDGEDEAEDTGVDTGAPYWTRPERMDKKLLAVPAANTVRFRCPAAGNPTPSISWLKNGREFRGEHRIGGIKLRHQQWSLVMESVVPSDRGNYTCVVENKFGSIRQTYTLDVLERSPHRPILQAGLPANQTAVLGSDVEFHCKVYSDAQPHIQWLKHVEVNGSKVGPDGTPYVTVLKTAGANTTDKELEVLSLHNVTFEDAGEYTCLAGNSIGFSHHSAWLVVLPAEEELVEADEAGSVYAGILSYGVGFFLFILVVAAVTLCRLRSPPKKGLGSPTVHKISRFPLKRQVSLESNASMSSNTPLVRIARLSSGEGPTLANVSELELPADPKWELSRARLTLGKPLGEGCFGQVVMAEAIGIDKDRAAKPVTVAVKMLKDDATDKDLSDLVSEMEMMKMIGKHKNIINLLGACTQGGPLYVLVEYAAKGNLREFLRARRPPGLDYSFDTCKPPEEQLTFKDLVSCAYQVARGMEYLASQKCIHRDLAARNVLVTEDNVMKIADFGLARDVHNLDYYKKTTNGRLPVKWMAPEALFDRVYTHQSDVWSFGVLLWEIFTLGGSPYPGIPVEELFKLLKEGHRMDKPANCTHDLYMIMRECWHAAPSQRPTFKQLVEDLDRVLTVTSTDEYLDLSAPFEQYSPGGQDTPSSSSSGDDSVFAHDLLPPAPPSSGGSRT

[17] = Half life in Sprague-Dawley rat at 2 mg/kg, iv measured for 24 hrs by LC-MS/MS-18 analysis; assay type: ADME, organism-based; conditions: in vivo
[18] = Half life in Sprague-Dawley rat at 5 mg/kg, ip measured for 24 hrs by LC-MS/MS-18 analysis; assay type: ADME, organism-based; conditions: in vivo
[19] = Cmax in Sprague-Dawley rat at 5 mg/kg, ip measured for 24 hrs by LC-MS/MS-18 analysis; assay type: ADME, organism-based; set-up: time 24 hrs, dose 5 mg/kg, route ip; conditions: in vivo
[20] = Tmax in Sprague-Dawley rat at 30 mg/kg, po measured for 24 hrs by LC-MS/MS-18 analysis; assay type: ADME, organism-based; conditions: in vivo
[21] = Tmax in Sprague-Dawley rat at 5 mg/kg, ip measured for 24 hrs by LC-MS/MS-18 analysis; assay type: ADME, organism-based; conditions: in vivo
[22] = biological target: T2, Protein deacetylase HDAC6 (Homo sapiens, UniProt Q9UBN7); assay: Inhibition of HDAC6 (unknown origin)
T2 sequence (Q9UBN7 whole entry): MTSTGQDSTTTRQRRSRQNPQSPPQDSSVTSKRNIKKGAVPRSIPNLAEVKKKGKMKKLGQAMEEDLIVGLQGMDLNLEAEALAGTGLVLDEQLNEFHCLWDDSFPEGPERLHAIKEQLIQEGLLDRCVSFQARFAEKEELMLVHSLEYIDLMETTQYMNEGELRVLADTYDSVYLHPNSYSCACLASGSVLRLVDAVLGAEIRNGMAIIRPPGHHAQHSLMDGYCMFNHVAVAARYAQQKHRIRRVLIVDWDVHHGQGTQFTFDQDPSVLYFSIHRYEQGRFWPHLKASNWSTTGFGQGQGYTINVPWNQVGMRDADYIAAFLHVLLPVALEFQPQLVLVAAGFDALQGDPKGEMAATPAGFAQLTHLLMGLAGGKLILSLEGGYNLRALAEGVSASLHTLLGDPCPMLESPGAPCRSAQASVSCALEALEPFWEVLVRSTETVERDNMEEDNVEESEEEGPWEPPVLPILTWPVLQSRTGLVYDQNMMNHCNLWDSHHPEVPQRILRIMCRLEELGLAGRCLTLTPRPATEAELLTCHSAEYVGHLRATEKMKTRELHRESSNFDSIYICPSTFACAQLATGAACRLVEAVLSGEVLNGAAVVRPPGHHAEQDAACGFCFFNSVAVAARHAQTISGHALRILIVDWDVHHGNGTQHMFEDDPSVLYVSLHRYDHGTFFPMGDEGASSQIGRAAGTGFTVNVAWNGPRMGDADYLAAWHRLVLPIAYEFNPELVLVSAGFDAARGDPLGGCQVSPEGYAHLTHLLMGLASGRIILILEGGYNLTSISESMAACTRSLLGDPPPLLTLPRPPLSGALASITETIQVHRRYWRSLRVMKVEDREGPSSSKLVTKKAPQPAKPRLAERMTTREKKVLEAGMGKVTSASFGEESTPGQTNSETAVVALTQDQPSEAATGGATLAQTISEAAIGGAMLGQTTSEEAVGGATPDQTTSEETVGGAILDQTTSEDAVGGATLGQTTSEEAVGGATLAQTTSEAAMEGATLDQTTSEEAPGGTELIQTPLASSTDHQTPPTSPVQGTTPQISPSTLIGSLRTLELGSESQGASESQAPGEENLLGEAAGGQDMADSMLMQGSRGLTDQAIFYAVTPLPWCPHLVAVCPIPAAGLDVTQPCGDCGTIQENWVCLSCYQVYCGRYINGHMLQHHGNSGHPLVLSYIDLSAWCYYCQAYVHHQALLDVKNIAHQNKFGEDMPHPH

[23] = Toxicity in BALB/c nude mouse xenografted with human HCT-116 cells assessed as reduction in body weight at 15 to 30 mg/kg/day, po administered for 18 days and measured every 3 days; assay type: organism-based; conditions: in vivo, 432 h, dose 15-30 mg/kg/day, time 18 day
[24] = AUC (0 to infinity) in Sprague-Dawley rat at 5 mg/kg, ip measured for 24 hrs by LC-MS/MS-18 analysis; assay type: ADME, organism-based; set-up: time 24 hrs, dose 5 mg/kg, route ip; conditions: in vivo
[25] = biological target: Histone deacetylase 1 (Homo sapiens, UniProt Q13547); assay: Inhibition of HDAC1 (unknown origin)
Sequence of Histone deacetylase 1 (Q13547 whole entry): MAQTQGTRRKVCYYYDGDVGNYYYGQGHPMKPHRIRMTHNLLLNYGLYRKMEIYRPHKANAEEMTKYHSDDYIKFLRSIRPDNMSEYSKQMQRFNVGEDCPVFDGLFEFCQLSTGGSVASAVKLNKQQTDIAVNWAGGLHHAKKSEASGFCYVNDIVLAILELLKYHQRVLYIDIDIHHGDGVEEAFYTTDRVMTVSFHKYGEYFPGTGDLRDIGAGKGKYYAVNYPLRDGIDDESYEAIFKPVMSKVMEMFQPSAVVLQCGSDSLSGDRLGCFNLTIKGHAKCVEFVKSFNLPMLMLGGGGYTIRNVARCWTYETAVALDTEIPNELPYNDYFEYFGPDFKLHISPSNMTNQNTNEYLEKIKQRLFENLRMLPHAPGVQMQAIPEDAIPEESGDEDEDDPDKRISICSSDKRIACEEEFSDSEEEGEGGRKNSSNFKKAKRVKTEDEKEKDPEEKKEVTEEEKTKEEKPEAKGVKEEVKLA

Sequence of Histone deacetylase 2 (Q92769 whole entry): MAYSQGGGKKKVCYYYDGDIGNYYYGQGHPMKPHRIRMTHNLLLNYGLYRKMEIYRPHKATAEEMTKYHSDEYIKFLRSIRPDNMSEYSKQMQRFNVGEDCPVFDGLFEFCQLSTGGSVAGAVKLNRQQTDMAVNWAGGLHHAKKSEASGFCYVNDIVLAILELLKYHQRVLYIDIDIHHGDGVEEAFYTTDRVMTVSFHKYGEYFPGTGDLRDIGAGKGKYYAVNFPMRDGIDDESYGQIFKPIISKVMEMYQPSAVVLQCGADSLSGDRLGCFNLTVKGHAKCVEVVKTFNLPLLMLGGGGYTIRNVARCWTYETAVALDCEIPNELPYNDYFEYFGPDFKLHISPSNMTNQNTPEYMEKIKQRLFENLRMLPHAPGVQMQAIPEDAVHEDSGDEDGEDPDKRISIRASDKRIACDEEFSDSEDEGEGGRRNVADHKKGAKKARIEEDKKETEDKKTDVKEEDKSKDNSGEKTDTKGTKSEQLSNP

IC50 [1]: 1.6 nM
AUC(0-inf) [2]: 1560 ng·h/mL
IC50 [3]: 1.2 nM
IC50 [5]: 13 nM
IC50 [6]: 1.4 nM
bioavailability [7]: 43.8%
half-life [8]: 0.77 h
AUC(0-inf) [9]: 425 ng·h/mL
Vd [10]: 2.79 L/kg
Cmax [11]: 443 ng/mL
Tmax [12]: 4.8 min
clearance [13]: 80.6 mL/min/kg
Cmax [14]: 1120 ng/mL
bioavailability [15]: 24.8%
IC50 [16]: 0.46 nM
half-life [17]: 0.98 h
half-life [18]: 1.83 h
Cmax [19]: 102 ng/mL
Tmax [20]: 4 h
Tmax [21]: 2 h
IC50 [22]: 2.6 nM
AUC(0-inf) [24]: 491 ng·h/mL
IC50 [25]: 1.3 nM
Compound: COc1cc(OC)cc(N(CCNC(C)C)c2ccc3ncc(-c4cnn(CCCCCCC(=O)NO)c4)nc3c2)c1
Activity [4]: Non-Toxic
Activity [23]: Non-Toxic
